According to patent publication US20210163485A1, “Heterocyclic Compounds for the Treatment of Disease” (Oppilan Pharma Ltd., priority 2017, published 2021):

Each molecule was assayed against T1, full-length human S1P1 (Homo sapiens, UniProt P21453) (assay: GTPγS binding assay (scintillation proximity assay) with S1P1 membranes). Details: S1P1 membrane from CHO-K1 Gαqi5 cells; GTPγ35S SPA, 60 minutes incubation.
T1 construct: CHO-K1 Gαqi5 cells expression full-length human S1P1; expressed in transfected cells; host or cells: CHO-K1 Gαqi5 cells (membrane preparation)
T1 sequence (P21453 whole entry): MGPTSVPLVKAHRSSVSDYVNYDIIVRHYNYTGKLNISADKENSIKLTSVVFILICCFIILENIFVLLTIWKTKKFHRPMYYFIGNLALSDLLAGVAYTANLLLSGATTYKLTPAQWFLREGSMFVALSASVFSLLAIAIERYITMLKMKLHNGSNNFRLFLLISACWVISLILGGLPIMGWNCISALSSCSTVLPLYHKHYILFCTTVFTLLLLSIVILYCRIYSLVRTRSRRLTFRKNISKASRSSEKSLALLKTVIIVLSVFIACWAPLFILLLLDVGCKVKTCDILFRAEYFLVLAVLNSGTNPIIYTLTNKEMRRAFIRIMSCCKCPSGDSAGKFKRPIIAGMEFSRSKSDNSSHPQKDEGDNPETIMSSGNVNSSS
Type: biochemical
Method: S1P1 membrane is prepared from CHO-K1 Gαqi5 cells expression full-length human S1P1. Scintillation proximity assay (SPA) is performed by incubating membranes, GTPγ^35S, and compounds at various concentrations for 60 minutes. Wheat germ agglutinin-coated SPA beads are added and incubated for 60 minutes before centrifugation and scintillation counting.

Structure (SMILES) | EC50
OC[C@H](O)COc1cc(Cl)c(-c2noc(-c3cn4nc(C(F)(F)F)ccc4n3)n2)cc1Cl [Compound 22, (S)-3-(2,5-dichloro-4-(5-(6-(trifluoromethyl)imidazo[1,2-b]pyridazin-2-yl)-1,2,4-oxadiazol-3-yl)phenoxy)propane-1,2-diol] | 100 to 1000 nM
N[C@@H](CO)COc1cc(Cl)c(-c2noc(-c3cn4nc(C(F)(F)F)ccc4n3)n2)cc1Cl [Compound 19, (S)-2-amino-3-(2,5-dichloro-4-(5-(6-(trifluoromethyl)imidazo[1,2-b]pyridazin-2-yl)-1,2,4-oxadiazol-3-yl)phenoxy)propan-1-ol] | < 100 nM
CC(CO)Oc1cc(Cl)c(-c2noc(-c3cn4cc(C(F)(F)F)ncc4n3)n2)cc1Cl (stereo not shown) [Compound 7, 2-(2,5-dichloro-4-(5-(6-(trifluoromethyl)imidazo[1,2-a]pyrazin-2-yl)-1,2,4-oxadiazol-3-yl)phenoxy)propan-1-ol] | < 100 nM
CC(CO)Oc1cc(Cl)c(-c2noc(-c3cn4nc(C(F)(F)F)ccc4n3)n2)cc1Cl (stereo not shown) [Compound 21, 2-(2,5-dichloro-4-(5-(6-(trifluoromethyl)imidazo[1,2-b]pyridazin-2-yl)-1,2,4-oxadiazol-3-yl)phenoxy)propan-1-ol] | 100 to 1000 nM
N[C@@H](CO)COc1cc(Cl)c(-c2noc(-c3cn4cc(C(F)(F)F)ncc4n3)n2)cc1Cl [Compound 24, (S)-2-amino-3-(2,5-dichloro-4-(5-(6-(trifluoromethyl)imidazo[1,2-a]pyrazin-2-yl)-1,2,4-oxadiazol-3-yl)phenoxy)propan-1-ol] | < 100 nM

Now from value to molecule:

EC50 | Structure (SMILES)
< 100 nM | OC[C@H](O)COc1cc(Cl)c(-c2noc(-c3cn4cc(C(F)(F)F)ncc4n3)n2)cc1Cl [Compound 8, (S)-3-(2,5-dichloro-4-(5-(6-(trifluoromethyl)imidazo[1,2-a]pyrazin-2-yl)-1,2,4-oxadiazol-3-yl)phenoxy)propane-1,2-diol]
< 100 nM | OC[C@@H](O)COc1cc(Cl)c(-c2noc(-c3cn4cc(C(F)(F)F)ncc4n3)n2)cc1Cl [Compound 9, (R)-3-(2,5-dichloro-4-(5-(6-(trifluoromethyl)imidazo[1,2-a]pyrazin-2-yl)-1,2,4-oxadiazol-3-yl)phenoxy)propane-1,2-diol]
